Experimental data as given in patent US20120053220A1, “NOVEL LIPOXYGENASE INHIBITORS AS NEUROPROTECTIVE AGENTS” (The General Hospital Corporation d/b/a Massachusetts …, priority 2007, published 2012).

Assays:
[1] = antioxidant test: quenching of the stable free radical DPPH; details: 5 μM test compound, 500 μM DPPH, absorbance 517 nm; FIG. 1B
Experimental: The rate of reaction is proportional to the antioxidant potency of the test compounds. A known free radical scavenger, nordihydroguaiaretic acid (NDGA), was used as a positive control. 10 μL, of 1 mM testing reagents to achieve final concentrations of 5 μM were added to 2 mL of 500 μM DPPH stirring in a cuvette.

15-hLOX-1 = target: T1, 15-hLOX-1 (Homo sapiens, UniProt P16050); details: natural products known to inhibit 15-hLOX-1; read-out: IC50 against 15-hLOX-1; cited from earlier work
T1 sequence (P16050 1-662): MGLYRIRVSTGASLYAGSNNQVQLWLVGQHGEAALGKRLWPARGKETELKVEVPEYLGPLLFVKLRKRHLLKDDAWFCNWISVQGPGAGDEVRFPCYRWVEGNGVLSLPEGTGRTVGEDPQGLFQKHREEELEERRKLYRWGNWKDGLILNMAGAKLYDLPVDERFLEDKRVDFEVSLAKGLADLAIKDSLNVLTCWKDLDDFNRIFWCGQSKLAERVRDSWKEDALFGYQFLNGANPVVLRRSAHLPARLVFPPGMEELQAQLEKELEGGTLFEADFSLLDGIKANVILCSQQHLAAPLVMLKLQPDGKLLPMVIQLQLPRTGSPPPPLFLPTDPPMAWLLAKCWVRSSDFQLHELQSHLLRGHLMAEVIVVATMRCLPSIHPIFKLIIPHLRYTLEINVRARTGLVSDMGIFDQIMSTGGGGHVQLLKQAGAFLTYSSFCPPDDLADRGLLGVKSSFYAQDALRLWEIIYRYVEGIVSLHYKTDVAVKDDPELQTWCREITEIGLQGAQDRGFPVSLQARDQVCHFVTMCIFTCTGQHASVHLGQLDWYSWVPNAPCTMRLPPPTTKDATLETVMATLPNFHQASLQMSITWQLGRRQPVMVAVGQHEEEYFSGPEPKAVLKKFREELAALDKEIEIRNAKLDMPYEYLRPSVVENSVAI

Row | SMILES | antioxidant activity (quenching of DPPH radical) [1] | IC50 (15-hLOX-1) [µM]
1 | CC(Cc1ccc(O)c(O)c1)C(C)Cc1ccc(O)c(O)c1 (centres unmarked) [NDGA, nordihydroguaiaretic acid] | rapid quenching | 
2 | C[C@H]1[C@H](C)CC[C@]2(C)CC[C@]3(C)C(=CC[C@@H]4[C@@]5(C)CC[C@@H](O)[C@](C)(C(=O)O)[C@@H]5CC[C@]43C)[C@H]12 [boswellic acid] |  | 1
